{
  "source": "patent US6943174B2",
  "about": "“6,5-Fused bicyclic heterocycles” (Warner-Lambert Company, priority 2000, dated 2005)",
  "key": {"human 15-LO": {"target": "T1, human 15-LO (Homo sapiens, UniProt P16050)", "T1 construct": "made in house; host or cells: Sf9 insect cells (baculovirus, Bac-to-Bac)", "T1 sequence (P16050 1-662)": "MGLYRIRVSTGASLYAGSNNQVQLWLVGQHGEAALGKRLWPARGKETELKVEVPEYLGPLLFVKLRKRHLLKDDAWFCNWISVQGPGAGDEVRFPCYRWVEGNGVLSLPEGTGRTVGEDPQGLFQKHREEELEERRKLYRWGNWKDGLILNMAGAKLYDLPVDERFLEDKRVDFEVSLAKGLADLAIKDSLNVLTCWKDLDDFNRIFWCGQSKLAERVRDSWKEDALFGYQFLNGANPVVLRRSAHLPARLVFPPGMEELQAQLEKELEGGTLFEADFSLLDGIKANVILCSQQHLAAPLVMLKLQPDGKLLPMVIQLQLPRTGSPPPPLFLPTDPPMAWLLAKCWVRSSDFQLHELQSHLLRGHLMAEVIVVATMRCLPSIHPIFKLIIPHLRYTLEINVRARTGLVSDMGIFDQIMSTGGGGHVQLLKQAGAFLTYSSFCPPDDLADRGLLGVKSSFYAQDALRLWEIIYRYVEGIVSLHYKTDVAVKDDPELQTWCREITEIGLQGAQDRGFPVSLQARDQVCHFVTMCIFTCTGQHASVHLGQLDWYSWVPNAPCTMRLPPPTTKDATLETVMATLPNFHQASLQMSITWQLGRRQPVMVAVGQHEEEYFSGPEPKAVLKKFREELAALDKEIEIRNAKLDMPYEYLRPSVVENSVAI", "assay": "Human Lysate 15-LO Assay (HUM15LO)", "type": "biochemical", "settings": "15-LO catalyzed oxidation of linoleic acid, 15 minutes at 4° C.", "description": "The HUM15LO assay measures inhibition of 15-LO catalyzed oxidation of linoleic acid to the hydroperoxy fatty acid 13-(S)HPODE, a conjugated diene. In the HUM15LO assay, a test compound was incubated with 15-LO enzyme in the presence of the linoleic acid substrate. For example, a known amount of a compound of the present invention and 100 μL of human 15-LO and 174 μM of linoleic acid in PBS containing 0.2% sodium cholate were incubated for 15 minutes at 4° C. The test reaction was stopped with 100 μL of mobile phase and 10 μL of triethyl phosphite. […] 13-HPODE was quantitated by comparing peak areas of individual samples with those from a standard curve generated using authentic 13-HODE. The test reaction was compared to a control reaction, which is identical to the test reaction except a test compound is not present. Percent inhibition was calculated as […], expressed as a percent.\nHuman 15-LO was generated in a recombinant 15-lipoxygenase bacculovirus expression system, using Gibco/BRL/Life Technologies' Bac-to-Bac expression reagents; T4 DNA ligase, Kanamycin, Gentamicin, tetracycline, penicillin, streptomycin, Bluo-gal, IPTC; DH10Bac competent cells, SOC, LB medium, Sf-900 II SFM media, Sf9 insect cells, Cell Fectin, and EcoRI, BamHI, and KpnI restriction enzymes."}},
  "data": [
    {"smiles": "COc1ccc(-c2nc3cccnc3[nH]2)cc1N", "note": "[Chemical Example 1, 5-(3H-imidazo[4,5-b]pyridin-2-yl)-2-methoxy-phenylamine]", "values": [
      {"measurement": "inhibition", "setting": "human 15-LO; at 10 μM", "result": 39, "unit": "%"}
    ]},
    {"smiles": "COc1ccc(-c2nc3cccnc3[nH]2)cc1NS(=O)(=O)c1cccs1", "note": "[Chemical Example 2, Thiophene-2-sulfonic acid [5-(3H-imidazo[4,5-b]pyridin-2-yl)-2-methoxy-phenyl]-amide]", "values": [
      {"measurement": "melting point", "result": "252 to 254", "unit": "°C"},
      {"measurement": "IC50", "setting": "human 15-LO", "result": 10, "unit": "µM"}
    ]}
  ]
}
